System: cytochrome C oxidase, complex IV of the respiratory chain
Experiment: Cytochrome C oxidase activity in human keratinocytes in culture, with or without H2O2 oxidative stress
Assay type: cell-based
Conditions: H2O2 alone (positive control), 24 h
Experimental: The keratinocyte cultures were established using skin from human foreskins collected at circumcisions and were amplified in KGM2 medium (Keratinocyte Growth Medium, KGN2, clonetics) supplemented with insulin, EGF and pituitary extract. The tests were conducted on keratinocytes at the 3rd passage. The cells were inoculated in multi-well dishes at a rate of 1×10^6 cells. After 24 hours of incubation at 37° C. (5% CO2), the cells in the exponential growth phase were treated with Gymnema sylvestre extract at the concentrations of 0.125% and 0.25% alone or in the presence of H2O2.
After 24 hours of treatment, the cells were sampled and then washed and resuspended in cold PBS. The evaluation of the cytochrome C oxidase activity was then carried out using the analysis kit (Cytochrome C Oxidase Assay Kit—Sigma) according to the protocol specified.

Compound: OO [H2O2, hydrogen peroxide]
- % (cytochrome C oxidase activity vs negative control): −34%
- ATP mean (Table II, cytochrome C oxidase activity test): 0.87 nmol/10^7 cells

Source: patent US20160317430A1, “COSMETIC USE OF AN EXTRACT OF GYMNEMA SYLVESTRE” (LABORATOIRES CLARINS, priority 2013, published 2016)
